Data as given in US5246935A, “Piperazinyl derivatives and methods of treating central nervous system ailments relating to the 5-HT2 receptor system” (Novo Nordisk A/S, priority 1990, dated 1993).
Counter-ions that a name gives are not always drawn.

What was measured:
5-HT1A receptors = conditions: cited from earlier work
[1] = system: ischemic neuronal damage in the gerbil; conditions: cited from earlier work
[2] = system: acetic acid-induced writhings in mice; assay: Antagonism of Acetic Acid-Induced Writhings In Mice; type: in vivo, mouse (NMRI); conditions: Mus musculus, sc; s.c. 30 min before acetic acid 0.5 per cent i.p.; 50 per cent protection
Protocol: Antagonism of Acetic Acid-Induced Writhings In Mice
In mice i.p. injection of acetic acid induces a writhing syndrome which is antagonized by analgesics (Siegmund et al., 1957; Eckhardt et al., 1957).
Acetic acid 0.5 per cent is injected i.p. (0.15 ml/10 g body weight) to 6 mice (NMRI, either sex weighing 20-25 g) pretreated with physiological saline (controls) and to 6 mice pretreated with test substance. In the controls acetic acid induces a syndrome characterized by contraction of abdomen, turning of trunk and extension of hind limbs. Saline and test substances are administered s.c. 30 min. before acetic acid. The number of writhings is counted 5-15 min. after injection of acetic acid.
The activity is expressed as per cent protection: [formula]
The effect of active substances is evaluated by a dose response curve, log dose on the abscissa, and per cent protection on the ordinate. The potency is expressed as the dose (ED50 in mg/kg giving 50 per cent protection against writhings.
This test is used as a screening test for analgesics. Additional results from other screening tests are required to exclude active anti-writhing substances without analgesic effect.

5HT1A receptor = molecular target: T1, 5HT1A receptor (Rattus norvegicus, UniProt P19327); assay: In-Vitro inhibition of 5HT1A receptor binding (3H-8-OH-DPAT); set-up: species or system rat (male Wistar); conditions: 3H-8-OH-DPAT 1 nM, rat frontal cortex and hippocampus, 37° C., 10 min
T1 sequence (P19327 1-422): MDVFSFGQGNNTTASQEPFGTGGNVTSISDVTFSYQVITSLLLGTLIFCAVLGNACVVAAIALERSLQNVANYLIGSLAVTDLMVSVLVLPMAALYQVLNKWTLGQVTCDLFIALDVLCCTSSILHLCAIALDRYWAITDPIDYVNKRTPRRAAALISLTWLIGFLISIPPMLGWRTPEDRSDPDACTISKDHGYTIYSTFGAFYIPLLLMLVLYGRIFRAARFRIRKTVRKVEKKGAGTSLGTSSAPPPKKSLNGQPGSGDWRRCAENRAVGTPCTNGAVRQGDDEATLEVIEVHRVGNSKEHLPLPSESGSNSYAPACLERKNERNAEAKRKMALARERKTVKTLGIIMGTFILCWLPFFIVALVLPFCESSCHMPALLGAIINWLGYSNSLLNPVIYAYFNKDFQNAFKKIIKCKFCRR
Protocol: In-Vitro inhibition of 5HT1A receptor binding
(§1) Radioactive-labelled ligand ^3 H-80H-DPAT is incubated with isolated cell-membrane fragments at 37° C. for a given period of time. Following completed incubation, the incubate is filtered through GF/F filters which are rinsed after filtration to remove unspecifically adhered radioactivity. As opposed to low-molecular compounds, membrane fragments are not rinsed through the filters, the radioactivity bound to the filters indicates the amount of ligand bound specifically as well as nonspecifically to the membranes.
Male Wistar rats, 150-200 g are decapitated, and frontal cortex (approx. 200 mg) and hippocampus (approx. 70 mg) homogenized in 2×10 ml ice-cold DPAT buffer for 20 sec. applying polytron kinematica setting 6. Centrifuged at 20,000 rpm for 10 min. at 4° C. The pellet is transferred to 2×10 ml ice-cold DPAT buffer, homogenized for 20 sec. and preincubated for 10 min. at 37° C. Centrifuged at 20,000 rpm for 10 min. at 4° C. Final pellet added to 125×vol. of same buffer with 10 μM paragylin added (ex. 270 mg tissue in 33.75 ml DPAT buffer containing paragylin). Prepared fresh every day. Use within 30 minutes.
1,250 μl tissue 25 μl ^3 H-80H-DPAT (1 nM) 25 μl test substance/H2 O/blind serotonin (10 μM)
Incubation at 37° C. for 10 min.--at 10 sec. intervals. To the tubes is added 10 ml ice-cold 0.9% NaCl. Filtration through GF/F filters (use gloves). This procedure is repeated. Filters are placed in counting vials and 4 ml optiflow added (prepare in fume cupboard, use gloves). Counted at window 0-19 of the beta- counter (Pachard). Note that receptor box and lid are rinsed thoroughly in H2 O after use to avoid contamination. Further the analytical site is cleaned carefully every day.
(§2) Dissolved in H2 O, EtOH, MeOH or DMSO and further diluted in H2 O. The DPAT binding will stand concentrations of up to approx. 5% of these solvents without affecting the binding. Most stock solutions are stable at 4° C. Attention should, however, be paid to any precipitation, change in colour etc. Test-substance dilutions are always prepared fresh every day. When weighing out test substances, it is attempted to weigh out approx. 1 mg of substance. Less than 0.8 mg must never be weighed out and only infrequently more than 2 mg (for economy reasons) dependent, however on conc./assay.

5HT2 receptor = molecular target: T2, 5HT2 receptor (Rattus norvegicus, UniProt P14842); assay: In Vitro Inhibition of 5HT2-Receptor Binding (3H-Ketanserine); set-up: species or system rat (male Wistar); conditions: 3H-Ketanserine 0.4 nM, rat frontal cortex, 37° C., 15 min
T2 construct: incubated with isolated cell-membrane fragments; from tissue; host or cells: frontal cortex of male Wistar rats (membranes)
T2 sequence (P14842 whole entry, the tested form may be a part): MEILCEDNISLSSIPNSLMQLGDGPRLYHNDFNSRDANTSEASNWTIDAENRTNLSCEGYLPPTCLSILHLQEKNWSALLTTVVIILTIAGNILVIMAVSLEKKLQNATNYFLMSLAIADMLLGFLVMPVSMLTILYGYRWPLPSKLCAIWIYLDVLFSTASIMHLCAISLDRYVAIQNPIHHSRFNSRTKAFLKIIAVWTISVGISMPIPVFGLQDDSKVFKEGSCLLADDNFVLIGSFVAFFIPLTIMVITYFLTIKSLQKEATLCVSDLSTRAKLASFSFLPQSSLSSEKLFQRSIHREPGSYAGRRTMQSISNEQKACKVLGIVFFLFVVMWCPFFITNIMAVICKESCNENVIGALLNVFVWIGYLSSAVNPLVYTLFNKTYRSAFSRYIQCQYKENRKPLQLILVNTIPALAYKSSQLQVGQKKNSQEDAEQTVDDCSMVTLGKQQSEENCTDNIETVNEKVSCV
Protocol: In Vitro Inhibition of 5HT2 -Receptor Binding
as §1, with “H-Ketanserine” for “H-80H-DPAT”, “GF/B” for “GF/F”, “non-specifically” for “nonspecifically”
The preparation is made in ice bath. Polytron kinematica is rinsed with milli-Q-H2 O before and after use. Male Wistar rats, 150-200 g are decapitated. Frontal cortex is removed quickly and weighed (approx. 200 mg). Frontal cortex is added to centrifuging vial containing 10 ml ice-cold D2 buffer. Homogenization applying polytron kinematica (homogenizer) setting 6 for 20 sec. The homogenizer is rinsed with 10 ml D2 buffer in another centrifuging vial. The 10 ml rinsing buffer is added to the tissue vial. Centrifuged at 18,000 rpm for 10 min. at 4° C. Final pellet is transferred to 125×vol. of same buffer. (Ex. 200 mg in 25 ml D2 buffer). Can be stored for approx. 30 min. at 0° C.
25 μl ^3 H-Ketanserine (0.4 nM)
25 μl test substance/H2 O/blind cyproheptadine (2 μM)
Incubation for 15 min. at 37° C.
10 ml ice-cold 0.9% NaCl is added to the tubes. Filtration is performed through GF/B filters (use gloves). This procedure is repeated. Filters are placed in counting vials, and 4 ml opti- flour is added (prepare in fume cupboard, use gloves). Counting at window 0-19 of the beta-counter (Pachard). Note that receptor box and lid are rinsed thoroughly in H2 O after use to avoid contamination. Further the analytical site is cleaned carefully every day.
as §2, with “The 5HT2” for “The DPAT”, “always made” for “always prepared”, “test substance,” for “test substances,”, “dependent, however,” for “dependent, however”

Alpha1 receptor = assay: In-Vitro Inhibition of Alpha1-Receptor Binding (3H-Prazosin); set-up: species or system rat (male Wistar); conditions: 3H-Prazosin 0.5 nM, rat cortex, 25° C., 30 min; read-out: Receptor binding IC50 α1
Protocol: In-Vitro Inhibition of Alpha1 -Receptor Binding, Radioactive-labelled ligand ^3 H-Prazosin is incubated with isolated cell-membrane fragments at 25° C. for a given period of time. Following completed incubation, the incubate is filtered through GF/B filters, which are rinsed following filtration to remove unspecifically adhered radioactivity. As opposed to low- molecular compounds, membrane fragments are not rinsed through the filters, the radioactivity bound to the filters indicates the amount of ligand bound specifically as well as nonspecifically to the membranes. The procedure is performed in ice bath. Polytron kinematica is rinsed with milli-Q-H2 O before and after use. Male Wistar rats, 150-200 g are decapitated, cortex is removed quickly and weighed (approx. 500 mg). Cortex is transferred to a centrifuging vial containing 10 ml ice-cold D2 buffer. Homogenization applying polytron kinematica (homogenizer) setting 6 for 20 sec. The homogenizer is rinsed with 10 ml D2 buffer in another centrifuging vial. The 10 ml rinsing buffer is added to the tissue vial. Centrifugation at 18,000 rpm for 12 min. at 4° C. This is repeated once. Final pellet is added to 400×vol. of same buffer. (Ex. 500 mg cortex in 200 ml D2 buffer). Can be stored for 30 min. at 0° C. 2,000 μl tissue 25 μl ^3 H-Prazosin (0.5 nM) 25 μl test substance/H2 O/blind Phentolamine (10 μM) Incubation for 30 min. at 25° C. 10 ml of ice-cold 0.9% NaCl is added to the tubes and filtered through GF/B filters (use gloves). This procedure is repeated. Filters are placed in counting vials and 4 ml opti-flour is added (perform in fume cupboard, use gloves). Counting is performed at window 0-19 of the betacounter (Pachard). […] Further, the analytical site is cleaned carefully every day after use. Dissolved in H2 O, EtOH, MeOH or DMSO and further diluted in H2 O. […] Most stock solutions are stable at 4° C. Attention should, however, be paid to any precipitation, change in colour etc. Test-substance dilutions are always prepared fresh every day. When weighing out test substances, it is attempted to weigh out approx. 1 mg of substance. Less than 0.8 mg must never be weighed out and only infrequently more than 2 mg (for economy reasons) dependent, however, on conc./ass.

dopamine D2 receptors = conditions: cited from earlier work
psychosis = conditions: in vivo; cited from earlier work
anxiety, depression = conditions: clinical; cited from earlier work
[3] = system: 5HT2, alpha1-adrenergic and dopaminergic receptors; conditions: cited from earlier work
5-HT2 receptor = conditions: cited from earlier work

For CCCN(CCC)C1CCc2cccc(O)c2C1 (centres unmarked) [Example 8-OH-DPAT, 8-hydroxy-2-(di-n-propylamino)tetralin], the “binding affinity / selectivity for 5-HT1A receptors (in words)” value (5-HT1A receptors) is given as “high affinity” and the “protective effect on ischemic neuronal damage in the gerbil (in words)” value [1] is given as “exhibit a protective effect on ischemic neuronal damage”.
In the case of Cl.O=C(Nc1ccc2c(c1)OCO2)OCCCN1CCN(c2cccc(Cl)c2)CC1 [Example 15, 4-(3-Chlorophenyl)-1-[3-(3,4-methylenedioxyphenylcarbamoyloxy)propyl]piperazine, hydrochloride], the ED50 [2] is reported as 5.6 mg/kg.
Cl.O=C(Nc1ccc2c(c1)OCCO2)OCCCN1CCN(c2cccc(Cl)c2)CC1 [Example 18, 4-(3-Chlorophenyl)-1-[3-(3,4-ethylenedioxyphenylcarbamoyloxy)propyl]piperazine, hydrochloride] gave an ED50 [2] of 7 mg/kg.
Compound COc1cc(NC(=S)OCCCN2CCN(c3ccccc3Cl)CC2)cc(OC)c1OC [Example 24, 4-(2-Chlorophenyl)-1-(3-[3,4,5-trimethoxyphenyl(thiocarbamoyl)oxy]propyl)piperazine, hydrochloride] has an IC50 (5HT1A receptor) of 0.061 µM, an IC50 (5HT2 receptor) of 0.049 µM and an IC50 (Alpha1 receptor) of 0.0075 µM.
Compound CCOC(=O)C1(c2ccccc2)CCN(C)CC1 [Pethidine, reference compound] has an ED50 [2] of 9.3 mg/kg.
In the case of Cc1nc2n(c(=O)c1CCN1CCC(c3noc4cc(F)ccc34)CC1)CCCC2 [Risperidone], the “antagonism of dopamine D2 receptors (in words)” value (dopamine D2 receptors) is listed as “potent antagonist” and the “antipsychotic properties (in words)” value (psychosis) is listed as “antipsychotic properties”.
For Cc1nc2sccn2c(=O)c1CCN1CCC(=C(c2ccc(F)cc2)c2ccc(F)cc2)CC1 [Ritanserin], the “anxiolytic / antidepressant efficacy (in words)” value (anxiety, depression) is listed as “demonstrate clinical efficacy as anxiolytic-antidepressant agents”.
For O=C1CC2(CCCC2)CC(=O)N1CCCCN1CCN(c2ncccn2)CC1 [buspirone], the “binding affinity / selectivity for 5-HT1A receptors (in words)” value (5-HT1A receptors) is given as “selectivity for 5-HT1A receptors” and the “anxiolytic / antidepressant efficacy (in words)” value (anxiety, depression) is given as “effective anxiolytic agent”.
For CN1CCN(C2=Nc3cc(Cl)ccc3Nc3ccccc32)CC1 [clozapine], the “antipsychotic properties (in words)” value (psychosis) is listed as “unprecedented antipsychotic potential” and the “binding to 5HT2, alpha1-adrenergic and dopaminergic receptors (in words)” value [3] is listed as “nonselectively binds”.
In the case of O=C(c1ccc(F)cc1)C1CCN(CCn2c(=O)[nH]c3ccccc3c2=O)CC1 [ketanserin], the “affinity for / antagonism of 5-HT2 receptor (in words)” value (5-HT2 receptor) is listed as “high affinity”.
For CCN(CC)CCOC(=O)C(Cc1cccc2ccccc12)CC1CCCO1 (centres unmarked) [naftidrofuryl], the “protective effect on ischemic neuronal damage in the gerbil (in words)” value [1] is listed as “exhibit a protective effect on ischemic neuronal damage”.
